US20070043110A1, “Nontoxic potentiation sensitization of ovarian cancer therapy by supplementary treatment with vitamins” (Summa Health System, priority 2001, published 2007)
Counter-ions that a name gives are not always drawn. Like-named read-outs stand apart in the source and are kept apart here.

Assays:
[1] = tested on: murine transplantable liver tumor (TLT); settings: cited from earlier work
[2] = 400-500 mg/day over 3-5 consecutive days; cited from earlier work
J82 = assay: Antitumor activity by MTT assay, J82; settings: Homo sapiens
Text: (§1) The FIC index was used to evaluate the synergism of the vitamins. A FIC<1.0 indicates the combination is synergistic, while a FIC>1.0 indicates the combination is antagonistic. A FIC=1.0 indicates the combination is indifferent. […] During this time, two requests for humanitarian intervention were made.

gastrointestinal cancer = settings: VK3 with mitomycin C; 43 patients; cited from earlier work
TCCSUP = assay: Antitumor activity by MTT assay, TCCSUP; settings: Homo sapiens, TCC-SUP
Text: as §1

advanced lung cancer = settings: cited from earlier work
DU145 = assay: Antitumor activity by MTT assay, DU145; settings: Homo sapiens
Text: as §1

T24 = assay: Antitumor activity by MTT assay, T24; settings: Homo sapiens
Text: as §1

SKOV3 = assay: Antitumor activity by MTT assay, SKOV3; settings: Homo sapiens
Text: as §1

CAOV-3 cell line = assay: Cytotoxicity (CD50), CAOV-3; format: cell-based; settings: Homo sapiens
Text: as §1

[3] = mouse, in vivo
tumor growth = settings: cited from earlier work
RT4 = assay: Antitumor activity by MTT assay, RT4; settings: Homo sapiens
Text: as §1

MDAH 2774 cells = assay: Antitumor activity by MTT assay, MDAH 2774
Text: as §1

[4] = mice; cited from earlier work
[5] = cited from earlier work
MDA-MB-231 = assay: Antitumor activity by MTT assay, MDA-MB-231; settings: Homo sapiens
Text: as §1

Caki-1 = assay: Antitumor activity by MTT assay, Caki-1; settings: Homo sapiens
Text: as §1

hepatoma = settings: weekly i.p. 10 mg/2 mL for 4 weeks, cited from earlier work
[6] = bisulfite form; cited from earlier work
CWR22 = assay: Antitumor activity by MTT assay, CWR22; settings: Homo sapiens
Text: as §1

SCaBER = assay: Antitumor activity by MTT assay, SCaBER; settings: Homo sapiens
Text: as §1

Tera-2 = assay: Antitumor activity by MTT assay, Tera-2; settings: Homo sapiens
Text: as §1

ES-2 cell line = assay: Cytotoxicity (CD50), ES-2; format: cell-based; settings: Homo sapiens
Text: as §1

prostate cancer = assay: Randomized trial in prostate cancer patients, serum HCY and PSA; format: in vivo, human; set-up: Variation of Serum HCY (mean ± SD): unit not given here; settings: for difference in serum levels of homocysteine and PSA versus control group: individual vitamin treatment groups (Group 2 or Group 3) vs Group 4
Experimental: Recently a prospective, randomized trial was performed with 20 prostate cancer patients who had pathologically proven prostate cancer in advanced stages (M1) with osseous metastasis and resistance to hormone therapy. The patients were randomly distributed in four groups of five patients each. […] In Group 2, ascorbic acid was omitted. In Group 3, menadione was omitted. A placebo was administered to patients of Group 4. Only two treatment courses were tested in this study so that the immediate effects of the vitamins in a clinical model could be determined and compared to the immediate induction of autoschizis elicited by the vitamin combination in preclinical models. Homocysteine (a good marker of the number of tumor cells with sensitivity for early detection of tumor cell death induced by treatments) and prostate specific antigen (PSA) assays were performed in the four groups to obtain information about the tumor cell death induced by the treatments. Serum homocysteine (HCY) and PSA were measured the first day of each week (day 1, 8, 15, 22, 29, 36, and […] of the study). […] This fall in serum HCY was highly significant (p<<0.01) in all weekly measures after the first series (day 8-42). […] The reasons for the initial increase in serum PSA levels are unknown.

PC3 = assay: Antitumor activity by MTT assay, PC3; settings: Homo sapiens
Text: as §1

[7] = 10 to 100 g twice per week; cited from earlier work
terminal cancer = settings: cited from earlier work
advanced cancer = settings: 10 grams given orally; cited from earlier work
[8] = read-out: Vitamins Alone, Vit K3 50% Cytotoxic Dose
[9] = assay day 8, oral 7 day courses from day 1 and day 22, VC 5 g/m^2/day, VK3 50 mg/m^2/day, pretreatment = 0
[10] = read-out: Vitamins Alone, Vit C 50% Cytotoxic Dose

## CC[C@]1(O)C[C@H]2CN(CCc3c([nH]c4ccccc34)[C@@](C(=O)OC)(c3cc4c(cc3OC)N(C=O)[C@H]3[C@@](O)(C(=O)OC)[C@H](OC(C)=O)[C@]5(CC)C=CCN6CC[C@]43[C@@H]65)C2)C1 [Oncovin, vincristine sulfate]
[1]; second study, each agent alone, Oncovin 0.3 mg/kg
  MST: 19.0 days

## O=P1(N(CCCl)CCCl)NCCCO1 (stereo not shown) [cyclophosphamide]
[1]; single dose of cyclophosphamide 80 mg/kg body weight
  ILS: 23%
[1]; single dose of cyclophosphamide 80 mg/kg body weight, untreated 16.8 days
  MST: 20.6 days

## CC1=CC(=O)c2ccccc2C1=O [Vitamin K3, 2-Methyl-1,4-Naphthoquinone]
[2]
  toxicity in phase I clinical trials: without any appreciable toxicity
J82; J82, read-out: Vitamins Alone, Vit K3 50% Cytotoxic Dose
  IC50: 8.2 ± 0.15 µM
Gastrointestinal cancer
  response to therapy: no objective response
TCCSUP; [8]
  IC50: 6.3 ± 0.06 µM
Advanced lung cancer; VK3 in combination with mitomycin C, 23 patients
  median survival: 5.5 months
Advanced lung cancer; VK3 with mitomycin C
  patients exhibiting hematologic toxicity: 30%
  patients exhibiting some tumor regression: 26%
DU145; DU-145, read-out: Vitamins Alone, Vit K3 50% Cytotoxic Dose
  IC50: 12.9 ± 0.81 µM
T24; T-24, read-out: Vitamins Alone, Vit K3 50% Cytotoxic Dose
  IC50: 13.1 ± 0.01 µM
SKOV3; SK-OV-3, read-out: Vitamins Alone, Vit K3 50% Cytotoxic Dose
  IC50: 22 ± 1.93 µM
CAOV-3 cell line; Caov-3, read-out: CD50, VK3 alone
  IC50: 22 µM
[3]
  toxicity to livers: no toxicity
Tumor growth; VK3 225 mg/kg/day with methotrexate
  inhibition of tumor growth: 84%
Tumor growth; menadione 250 mg/kg/day with methotrexate 0.75 mg/kg/day
  inhibition of tumor growth: 99%
Tumor growth; rat, in vivo
  circulating levels of VK3 that induce synergism with methotrexate: ≥ 1 µM
RT4; RT-4, read-out: Vitamins Alone, Vit K3 50% Cytotoxic Dose
  IC50: 12.8 ± 0.03 µM
MDAH 2774 cells; Homo sapiens, MDAH 2774, read-out: Vitamins Alone, Vit K3 50% Cytotoxic Dose, MDAH, Ovarian
  IC50: 41.8 µM
[1]; VK3 alone 0.01 g/Kg body weight
  increased lifespan: 1.07%
[4]
  LD50: 500 mg/kg
[5]; 48-hour intravenous infusion, followed by mitomycin C 15 mg/m2 every four weeks
  maximum tolerated dose of VK3: 2.5 g/m^2
[5]; i.v., in conjunction with mitomycin C, Phase I and Phase II trials
  tolerability: well tolerated
[5]; with mitomycin C every four weeks
  hemolysis at maximum tolerated dose: no hemolysis
MDA-MB-231; MDA-MB-231, read-out: Vitamins Alone, Vit K3 50% Cytotoxic Dose
  IC50: 7.1 ± 0.21 µM
Caki-1; CAKI-1, read-out: Vitamins Alone, Vit K3 50% Cytotoxic Dose
  IC50: 19.3 ± 0.33 µM
hepatoma
  long term survivors: 5 out of 16
hepatoma; control rats 17 days
  survival: 60 days
[6]
  solubility: water soluble
CWR22; CWR22, read-out: Vitamins Alone, Vit K3 50% Cytotoxic Dose
  IC50: 4.1 ± 0.33 µM
SCaBER; [8]
  IC50: 9.7 ± 0.15 µM
Tera-2; [8]
  IC50: 21.8 ± 0.73 µM
ES-2 cell line; read-out: CD50, VK alone
  IC50: 25 µM
Prostate cancer; [9]
  Variation of Serum HCY (mean ± SD): 0.468 ± 0.362
Prostate cancer; assay day 15
  Variation of Serum HCY (mean ± SD): 0.59 ± 0.227
Prostate cancer; assay day 22
  Variation of Serum HCY (mean ± SD): 0.68 ± 0.210
Prostate cancer; assay day 29
  Variation of Serum HCY (mean ± SD): 0.76 ± 0.341
Prostate cancer; assay day 36
  Variation of Serum HCY (mean ± SD): 1.12 ± 0.400
Prostate cancer; assay day 42
  Variation of Serum HCY (mean ± SD): 1.3 ± 0.432
Prostate cancer
  difference in serum levels of homocysteine and PSA versus control group: non-significant difference
PC3; PC-3, read-out: Vitamins Alone, Vit K3 50% Cytotoxic Dose
  IC50: 11.4 ± 0.13 µM

## O=C1O[C@H]([C@@H](O)CO)C([O-])=C1O.[Na+] [Vitamin C, Sodium Ascorbate]
J82; J82, read-out: Vitamins Alone, Vit C 50% Cytotoxic Dose
  IC50: 376 ± 1 µM
TCCSUP; [10]
  IC50: 297 ± 7 µM
DU145; DU-145, read-out: Vitamins Alone, Vit C 50% Cytotoxic Dose
  IC50: 2460 ± 28 µM
T24; T-24, read-out: Vitamins Alone, Vit C 50% Cytotoxic Dose
  IC50: 1490 ± 141 µM
SKOV3; SK-OV-3, read-out: Vitamins Alone, Vit C 50% Cytotoxic Dose
  IC50: 755 ± 24.1 µM
CAOV-3 cell line; Caov-3, read-out: CD50, vitamin C alone
  IC50: 1360 µM
RT4; RT-4, read-out: Vitamins Alone, Vit C 50% Cytotoxic Dose
  IC50: 2430 ± 28 µM
MDAH 2774 cells; Homo sapiens, MDAH 2774, read-out: Vitamins Alone, Vit C 50% Cytotoxic Dose, MDAH, Ovarian
  IC50: 1530 µM
MDAH 2774 cells; read-out: Vitamins Alone, Vit C 50% Cytotoxic Dose, MDAH, Ovarian
  IC50: 1520 ± 29 µM
[7]
  remissions with high doses of i.v. VC: a small number of complete remissions
Terminal cancer; 100 terminal cancer patients, 10 g/day i.v. for 10 days then 10 g/day orally, controls 50 days
  mean survival time: more than 210 days
Terminal cancer; six ovarian cancer patients, controls 71 days
  mean survival time: 148 days
[1]; VC alone 1 g/Kg body weight
  increased lifespan: 14.7%
MDA-MB-231; MDA-MB-231, read-out: Vitamins Alone, Vit C 50% Cytotoxic Dose
  IC50: 466 ± 3.23 µM
Caki-1; CAKI-1, read-out: Vitamins Alone, Vit C 50% Cytotoxic Dose
  IC50: 376 ± 1 µM
CWR22; CWR22, read-out: Vitamins Alone, Vit C 50% Cytotoxic Dose
  IC50: 254 ± 1.02 µM
Advanced cancer
  effectiveness of oral Vitamin C: no benefits
SCaBER; [10]
  IC50: 327 ± 6 µM
Tera-2; [10]
  IC50: 1312 ± 10 µM
ES-2 cell line; read-out: CD50, VC alone
  IC50: 197 µM
Prostate cancer; [9]
  Variation of Serum HCY (mean ± SD): 0.59 ± 0.508
Prostate cancer; assay day 15
  Variation of Serum HCY (mean ± SD): 0.74 ± 0.349
Prostate cancer; assay day 22
  Variation of Serum HCY (mean ± SD): 1.24 ± 0.448
Prostate cancer; assay day 29
  Variation of Serum HCY (mean ± SD): 1.45 ± 0.498
Prostate cancer; assay day 36
  Variation of Serum HCY (mean ± SD): 1.32 ± 0.448
Prostate cancer; assay day 42
  Variation of Serum HCY (mean ± SD): 1.34 ± 0.486
Prostate cancer
  difference in serum levels of homocysteine and PSA versus control group: non-significant difference
PC3; PC-3, read-out: Vitamins Alone, Vit C 50% Cytotoxic Dose
  IC50: 2360 ± 39 µM
